Assay type in all cases: cell-based
The test system of assay [1] is human monocyte-derived iDC. The assay is described as follows: Uptake by immature dendritic cells, confocal microscopy. The conditions noted are these: two minutes incubation at 37° C.; labeled Compound 1 50 μg/ml, FITC-dextran 1 mg/ml. Here is the method:
Briefly, Oregon-green (Molecular Probes, Eugene, Oreg.)-conjugated Lipid II is included in an MtgA polymerization reaction at a ratio of 1:4 with unlabeled Lipid II to produce a 25% Oregon-green labeled polymer. The polymeric material is purified and treated as previously described. […] After incubation, extracellular probe is removed by washing the cells four times in ice cold complete DC medium (Example 5). Washed cells are then incubated at 37° C. and staining is stopped at two-minute intervals by washing in 1% paraformaldehyde fix diluted in flow wash solution (which also contains the metabolic poison sodium azide; protocol described in Example 5). Glass slide samples are prepared at each time interval and sealed with clear nail polish. Samples are stored at −20° C. and protected from light until analysis on a Radiance 2100 confocal microscope (BioRad Laboratories, Hercules, Calif.).

Assay [2] concerns human monocyte-derived dendritic cells. The assay is described as follows: Kinetics of uptake by immature dendritic cells, flow cytometry. The conditions noted are these: 0° C., cells metabolically inactive. Here is the method:
In these experiments, human monocyte-derived dendritic cells are prepared as described in Example 5. Dendritic cells are resuspended at 5×10^5 cells/sample and incubated on ice at […] At 0, 2, 10, 20, 30, 40, and 50 minutes after the start of incubation, uptake is stopped by washing the cells with four washes of ice cold flow wash buffer (Example 5). The washed cells are fixed in paraformaldehyde also as described in Example 5. Stained, fixed cells are stored at 4° C. protected from light until analysis using a FC500 flow cytometer (Beckman Coulter, Miami, Fla.).

The next assay has as its target T1, human TLR-2 (Homo sapiens, UniProt O60603).
T1 construct: expressed in transfected cells; host or cells: HEK293 cells (ATCC), transiently transfected with Fugene6
The conditions noted are these: 1 ng/ml, positive stimulation control.

T1 sequence (O60603 21-784): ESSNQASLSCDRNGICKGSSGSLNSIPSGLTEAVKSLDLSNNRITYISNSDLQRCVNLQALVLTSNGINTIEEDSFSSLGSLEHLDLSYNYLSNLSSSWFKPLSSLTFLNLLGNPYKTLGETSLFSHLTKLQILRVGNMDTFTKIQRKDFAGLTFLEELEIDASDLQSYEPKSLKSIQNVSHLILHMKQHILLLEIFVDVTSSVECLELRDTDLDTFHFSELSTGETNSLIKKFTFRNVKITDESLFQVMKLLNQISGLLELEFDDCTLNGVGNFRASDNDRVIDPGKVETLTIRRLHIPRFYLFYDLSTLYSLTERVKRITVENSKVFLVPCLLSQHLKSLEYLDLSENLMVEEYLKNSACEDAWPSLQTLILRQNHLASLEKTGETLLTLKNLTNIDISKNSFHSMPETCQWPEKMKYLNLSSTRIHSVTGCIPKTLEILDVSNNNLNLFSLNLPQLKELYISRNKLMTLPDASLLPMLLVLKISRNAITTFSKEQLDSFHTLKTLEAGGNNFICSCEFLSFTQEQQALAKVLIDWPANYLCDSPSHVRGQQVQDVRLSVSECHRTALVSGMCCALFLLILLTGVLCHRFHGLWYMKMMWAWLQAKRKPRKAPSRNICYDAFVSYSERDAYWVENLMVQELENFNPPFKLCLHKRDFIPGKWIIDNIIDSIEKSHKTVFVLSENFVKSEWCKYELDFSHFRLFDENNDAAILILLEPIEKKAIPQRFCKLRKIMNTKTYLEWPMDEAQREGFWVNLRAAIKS
Source text for human TLR-2: These experiments involve transfecting HEK293 cells (American Type Culture Collection, Manassas, Va.) with two plasmid DNAs. The first plasmid, pcDNA3.1/Hygro (Invitrogen), contains the human TLR-2 gene. The second plasmid, pNF-κB-luc (Stratagene, La Jolla, Calif.), encodes the NF-κB gene linked to a luciferase reporter gene whose product can be followed in vitro as a direct measure of NF-κB-activation. To prepare the DNA for transfection into the cells, Fugene6 (Roche, Basel Switzerland) transfecting reagent is diluted 1:6 in OPTI-MEM (Invitrogen, Carlsbad, Calif.) growth medium. Next, 75 ng of pNF-κB-luc and 300 ng of pcDNA3.1/Hygro DNA are added to the diluted Fugene6 and the mixture is incubated at 37° C. for 30 minutes. HEK293 cells at a concentration of 10^6 cells/ml are added to the DNA/Fugene6 mixture. […] The amount of luciferase activity resulting from incubation with the compounds is evaluated by removing the growth medium from the cells and replacing it with 100 μl of RLB lysis solution (Promega, Madison, Wis.). […] The luciferase activity of each cell culture is determined in a 25 μl aliquot of cell lysate in a Victor Luminometer (Perkin Elmer Life Sciences, Shelton, Conn.) according to the manufacturer's instructions. […]

As for FITC-Dextran, the “intracellular localization in iDCs (confocal images)” value in assay [1] is “Localization of polymer in endocytic vacuoles”. The “uptake by iDCs over time (mean fluorescence intensity)” value in assay [2] is “uptake is inhibited”.
As to TNFα, the “increase in luciferase activity compared with unstimulated cultures” value at human TLR-2 was determined as 22.5 fold.

The values above are taken from patent publication US8129518B2, “Synthetic polysaccharide antigens for immunological intervention in disease” (Eli Lilly and Company, priority 2004, dated 2012).
